Values joined by “and” are separate entries in the source; they are usually repeats but may differ in a detail not shown here. Equal values may be shown once. Active and inactive are the calls of the source.
Key:
Cytochrome P450 2D6 = Cytochrome P450 2D6 (Homo sapiens, UniProt P10635);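 note: CYP2D6 member of a cytochrome P450 panel assay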
Cytochrome P450 3A4 = Cytochrome P450 3A4 (Homo sapiens, UniProt P08684);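 note: CYP3A4 tested as one member of a cytochrome P450 panel screen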
[1] = control 3'UTR Renilla luciferase suppression, dose response, counter-screen for Shn3 inhibitor project, cell-based, Clone20-Shn3RL, cherry-picked (AID 624133); type: functional
[2] = HepG2 cell cytotoxicity, dose response, cytotoxicity control for Shn3 inhibitor project, CellTiter-Glo, cherry-picked (AID 624134); type: functional, cell-based
[3] = Shn3 3'UTR reporter inhibitors, dose response, cell-based, Clone20 osteoblasts, firefly luciferase, cherry-picked (AID 624132); type: functional;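 note: firefly luciferase luminescence from reporter carrying the Shn3 3'UTR in osteoblasts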
[4] = Luminescence Cell-Based Dose Retest to Confirm Inhibitors of Cancer Stem Cells. [Related pubchem assays (depositor defined):AID2717, AID2721]; type: functional; details: Homo sapiens
Cytochrome P450 2C9 = Cytochrome P450 2C9 (Homo sapiens, UniProt P11712)
Sequence of Cytochrome P450 2C9 (P11712 whole entry): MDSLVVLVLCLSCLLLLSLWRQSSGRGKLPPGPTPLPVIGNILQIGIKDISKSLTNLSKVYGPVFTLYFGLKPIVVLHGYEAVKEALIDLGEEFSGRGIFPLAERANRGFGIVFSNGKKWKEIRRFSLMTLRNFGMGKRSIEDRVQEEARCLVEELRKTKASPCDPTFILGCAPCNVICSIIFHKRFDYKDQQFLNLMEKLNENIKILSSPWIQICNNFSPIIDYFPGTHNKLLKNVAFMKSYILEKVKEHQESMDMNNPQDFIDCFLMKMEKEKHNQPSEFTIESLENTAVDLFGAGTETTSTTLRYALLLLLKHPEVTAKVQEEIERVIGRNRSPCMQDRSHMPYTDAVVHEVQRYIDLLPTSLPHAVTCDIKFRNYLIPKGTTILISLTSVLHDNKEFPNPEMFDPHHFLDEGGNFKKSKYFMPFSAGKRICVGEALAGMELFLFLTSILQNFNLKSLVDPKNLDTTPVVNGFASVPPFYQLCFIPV

Cytochrome P450 2C19 = Cytochrome P450 2C19 (Homo sapiens, UniProt P33261); test: Cytochrome panel assay with activity outcomes. Panel member name: p450-cyp2c19 Compounds with AC50 equal or less than 10 uM are considered active; type: functional
Sequence of Cytochrome P450 2C19 (P33261 whole entry): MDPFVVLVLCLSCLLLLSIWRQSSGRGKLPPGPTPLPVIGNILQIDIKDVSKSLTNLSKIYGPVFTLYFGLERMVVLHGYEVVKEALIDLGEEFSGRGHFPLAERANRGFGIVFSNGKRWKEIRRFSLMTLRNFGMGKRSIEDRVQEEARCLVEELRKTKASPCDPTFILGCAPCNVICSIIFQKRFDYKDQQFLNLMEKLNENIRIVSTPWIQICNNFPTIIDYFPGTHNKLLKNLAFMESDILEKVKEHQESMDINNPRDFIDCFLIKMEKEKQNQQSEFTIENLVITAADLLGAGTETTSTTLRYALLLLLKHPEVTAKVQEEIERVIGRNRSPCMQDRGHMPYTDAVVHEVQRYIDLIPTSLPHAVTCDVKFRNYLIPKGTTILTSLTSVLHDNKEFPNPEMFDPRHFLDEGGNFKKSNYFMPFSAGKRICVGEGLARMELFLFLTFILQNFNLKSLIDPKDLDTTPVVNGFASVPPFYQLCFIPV

cells = type: functional
[5] = target: T1, Corticotropin-releasing factor receptor 2/Corticotropin-releasing factor-binding protein (Homo sapiens, UniProt P24387+Q13324); test: activators of CRF receptor 2 with binding protein – uHTS hits, confirmation (AID 602473); type: functional; details: read-out: EC50_Mean
T1 sequence (Q13324 whole entry): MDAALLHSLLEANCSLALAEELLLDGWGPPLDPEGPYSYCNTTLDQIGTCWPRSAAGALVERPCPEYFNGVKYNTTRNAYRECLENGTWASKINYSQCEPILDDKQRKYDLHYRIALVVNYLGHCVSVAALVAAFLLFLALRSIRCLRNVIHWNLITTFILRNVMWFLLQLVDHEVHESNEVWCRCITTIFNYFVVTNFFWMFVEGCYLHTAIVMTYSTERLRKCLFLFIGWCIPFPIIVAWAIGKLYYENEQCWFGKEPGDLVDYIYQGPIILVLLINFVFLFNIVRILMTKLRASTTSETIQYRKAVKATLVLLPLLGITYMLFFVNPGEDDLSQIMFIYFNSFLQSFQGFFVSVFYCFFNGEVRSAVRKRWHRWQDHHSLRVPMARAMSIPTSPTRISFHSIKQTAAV
T1 sequence (P24387 whole entry): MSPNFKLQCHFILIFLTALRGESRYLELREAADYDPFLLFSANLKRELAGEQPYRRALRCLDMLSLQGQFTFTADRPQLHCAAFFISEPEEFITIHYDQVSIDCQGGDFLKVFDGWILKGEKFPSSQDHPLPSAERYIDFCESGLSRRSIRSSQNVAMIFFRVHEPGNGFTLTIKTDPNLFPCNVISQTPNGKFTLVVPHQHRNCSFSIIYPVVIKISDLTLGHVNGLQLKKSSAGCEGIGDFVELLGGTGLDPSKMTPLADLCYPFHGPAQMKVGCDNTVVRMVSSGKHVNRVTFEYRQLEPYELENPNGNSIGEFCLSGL

Streptococcus = test: Group A Streptococcus viability loss, dose response, counter-screen for streptokinase expression inhibitor project, luminescence, BacTiterGlo (AID 1915); type: functional, organism-based;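 note: potency for reduction of bacterial viability or growth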
[6] = system: Streptococcus sp. 'group A'; test: growth inhibition of control SK(-) GAS strain, dose response, counter-screen for streptokinase expression inhibitor project, luminescence, kanamycin, BacTiterGlo, confirmation (AID 1900); type: functional, organism-based
[7] = target: T2, Rac GTPase-activating protein 1 (Homo sapiens, UniProt Q9H0H5); test: MgcRacGAP GTPase-activating activity inhibitors, confirmation, biochemical, ADP Hunter fluorescence, primary and confirmatory (AID 624330); type: functional
T2 sequence (Q9H0H5 whole entry): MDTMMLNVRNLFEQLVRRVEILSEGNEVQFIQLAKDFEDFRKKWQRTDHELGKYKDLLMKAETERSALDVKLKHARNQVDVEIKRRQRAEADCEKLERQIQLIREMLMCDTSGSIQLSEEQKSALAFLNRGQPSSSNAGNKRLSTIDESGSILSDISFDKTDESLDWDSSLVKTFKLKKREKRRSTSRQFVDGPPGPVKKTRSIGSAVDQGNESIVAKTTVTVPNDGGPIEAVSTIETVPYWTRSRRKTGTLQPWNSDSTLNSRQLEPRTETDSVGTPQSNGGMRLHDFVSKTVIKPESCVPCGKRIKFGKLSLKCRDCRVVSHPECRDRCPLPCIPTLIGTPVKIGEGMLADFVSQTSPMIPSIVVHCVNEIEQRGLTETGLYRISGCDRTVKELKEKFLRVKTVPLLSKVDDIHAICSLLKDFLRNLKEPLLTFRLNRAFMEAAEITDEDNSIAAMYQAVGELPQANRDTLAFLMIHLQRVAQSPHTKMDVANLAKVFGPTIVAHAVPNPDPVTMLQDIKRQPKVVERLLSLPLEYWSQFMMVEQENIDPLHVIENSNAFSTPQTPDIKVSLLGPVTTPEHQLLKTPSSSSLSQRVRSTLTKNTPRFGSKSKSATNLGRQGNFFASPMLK

[8] = growth suppression of PTEN-null colon cells, dose response, cell-based, HCT116 PTEN knockout (AID 1047); type: functional;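 note: HCT116 colon tumor cells with PTEN knocked out; cells exposed to compound for 60 hours before readout; potency for loss of cell viability measured by luminescence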
[9] = growth suppression of beta-catenin-knockout colon cells, dose response, cell-based, HCT116, human colon tumor (AID 1045); type: functional;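 note: HCT116 colon tumor cells with beta catenin knocked out; cells exposed to compound for 60 hours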
[10] = inhibitors of intracellular T. cruzi replication, confirmation, NIH3T3 host cells, beta-gal luminescence (AID 2044); type: functional, cell-based;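 note: intracellular parasites grown in NIH/3T3 mouse fibroblasts as host cells; luminescent beta-galactosidase reporter signal from transgenic T. cruzi replicating inside host cells; inhibitors lower the luminescence signal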
[11] = cytotoxicity toward NIH3T3 fibroblasts, dose response, counter-screen, cell-based, ATP luminescence, mouse fibroblasts (AID 2010); type: functional;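 note: cells exposed to compound for about 90 hours before reading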
[12] = HEp-2 cell cytotoxicity, dose response, cytotoxicity control for RSV inhibitor project, HTS (AID 2410); type: functional; details: human respiratory syncytial virus

Sequence of Cytochrome P450 3A4 (P08684 whole entry): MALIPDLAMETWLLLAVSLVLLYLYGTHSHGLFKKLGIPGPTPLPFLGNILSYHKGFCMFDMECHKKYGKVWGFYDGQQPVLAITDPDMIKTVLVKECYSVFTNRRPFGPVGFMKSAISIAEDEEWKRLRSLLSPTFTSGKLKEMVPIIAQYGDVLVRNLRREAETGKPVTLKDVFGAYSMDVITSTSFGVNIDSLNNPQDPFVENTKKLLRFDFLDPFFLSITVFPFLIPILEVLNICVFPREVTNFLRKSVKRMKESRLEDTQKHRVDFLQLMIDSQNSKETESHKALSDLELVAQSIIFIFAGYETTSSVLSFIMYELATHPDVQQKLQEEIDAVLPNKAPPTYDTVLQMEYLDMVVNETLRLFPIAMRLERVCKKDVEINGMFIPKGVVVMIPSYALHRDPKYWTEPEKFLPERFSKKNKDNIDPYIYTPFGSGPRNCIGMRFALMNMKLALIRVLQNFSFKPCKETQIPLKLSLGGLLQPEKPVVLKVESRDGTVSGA
Sequence of Cytochrome P450 2D6 (P10635 whole entry): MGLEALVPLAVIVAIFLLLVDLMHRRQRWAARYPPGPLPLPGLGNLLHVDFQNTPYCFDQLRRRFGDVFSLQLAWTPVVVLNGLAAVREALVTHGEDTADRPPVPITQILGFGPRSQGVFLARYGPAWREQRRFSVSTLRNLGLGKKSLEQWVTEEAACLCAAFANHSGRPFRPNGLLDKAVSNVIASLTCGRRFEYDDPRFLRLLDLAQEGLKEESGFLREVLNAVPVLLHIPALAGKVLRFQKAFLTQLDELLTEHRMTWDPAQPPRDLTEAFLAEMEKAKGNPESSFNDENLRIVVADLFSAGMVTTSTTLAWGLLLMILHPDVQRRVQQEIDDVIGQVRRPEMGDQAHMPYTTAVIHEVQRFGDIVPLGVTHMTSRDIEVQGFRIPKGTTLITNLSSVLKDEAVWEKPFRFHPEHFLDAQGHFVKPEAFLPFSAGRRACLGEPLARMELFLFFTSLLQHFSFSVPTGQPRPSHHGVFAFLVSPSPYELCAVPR

For Cc1cc2c(nc1C)CCCN2C[C@H](C)O/N=C1/[C@H]2O[C@@H]2[C@@H](O)[C@H]2[C@H]1CCn1c(=O)n(-c3ccccc3)c(=O)n12, the AC50 (Cytochrome P450 2D6) was 2.51 µM (inconclusive) and the AC50 (Cytochrome P450 3A4) was 6.31 µM (inconclusive).
For Cc1ccc(S(=O)(=O)N2CCN(c3ncnc4sccc34)CC2)cc1C, the AC50 [1] was 6.17 µM (active), the AC50 [2] was 5.96 µM (active) and the AC50 [3] was 3.53 µM (active).
In the case of O=C(NCc1ccc(Cl)cc1)c1cccc(NC(=O)c2ccccc2)c1, the AC50 [4] is reported as 5.29 µM (active).
In the case of COCC(C)NCc1cccc(C)c1 (stereo unspecified), the AC50 (Cytochrome P450 2D6) is reported as 14.1 µM (inconclusive).
In the case of Cc1ccc(N(C(C)C(=O)Nc2cc(Cl)ccc2Oc2ccccc2)S(C)(=O)=O)cc1 (stereo unspecified), the AC50 (Cytochrome P450 2D6) is reported as 15.8 µM (inconclusive).
With N#Cc1ccc(C(c2nnnn2C2CCCC2)N2CCC(Cc3ccccc3)CC2)cc1 (stereo unspecified) the AC50 (Cytochrome P450 2C9) was 11.2 µM (inconclusive) and the AC50 (Cytochrome P450 2D6) was 10 µM (inconclusive).
In the case of CCc1cc2c(nc1CC)CCN(CC/C(C)=N/OC[C@@H](O)[C@@H]1O[C@@H]3OC(C)(C)O[C@@H]3[C@H]1O)C2, the AC50 (Cytochrome P450 2D6) is reported as 6.31 µM (inconclusive), the AC50 (Cytochrome P450 2C19; read-out: AC50) is reported as 0.0316 µM (inconclusive) and the AC50 (Cytochrome P450 3A4) is reported as 6.31 µM (inconclusive).
For CC(C)COc1ccc(C2(C#N)CC[N+](C)(C)CC2)cc1.[Br-], the AC50 (Cytochrome P450 2D6) was 11.2 µM (inconclusive), the AC50 (Cytochrome P450 2C19) was “inconclusive” and the AC50 (Cytochrome P450 3A4) was 39.8 µM (inconclusive).
With CCN(CC)S(=O)(=O)c1ccc(C(=O)OCn2nnc3ccccc3c2=O)cc1 the IC50 (cells) was 17.9 µM (active).
In the case of CCOC(=O)c1sc(NC(=S)NC(=O)c2cccc(OC)c2)nc1C, the EC50 [5] is reported as 15 µM (active).
In the case of COc1c(N2CCN(C(S)=Nc3ccc(F)cc3)C(C)C2)c(F)cc2c(=O)c(C(=O)O)cn(C3CC3)c12 (stereo unspecified), the EC50 (Streptococcus) is reported as 5.79 µM (active) and the EC50 [6] is reported as 4.5 µM (active).
With Cc1ccc2oc(=O)c(/C=C(\O)c3ccccc3)nc2c1 the EC50 [5] was 12.1 µM (active) and the IC50 [7] was 48.6 µM (active).
In the case of COC(=O)c1[nH]c2ccc(C)cc2c1NC(=O)NC1CCCCC1, the EC50 [8] is reported as 20.2 µM (active) and the EC50 [9] is reported as 26.5 µM (active).
In the case of Cc1cccc(CN(C)CCc2ccccn2)c1, the AC50 (Cytochrome P450 2C9) is reported as 0.355 µM (inconclusive), the AC50 (Cytochrome P450 2D6) is reported as 2.51 µM (inconclusive) and the EC50 [10] is reported as 0.517 µM (active). For the same compound, the EC50 [11] was > 30 µM (not active).
With c1ncc(-c2ccoc2)c(NC2CC2)n1 the AC50 (Cytochrome P450 2D6) was 25.1 µM (inconclusive) and the AC50 (Cytochrome P450 2C19; read-out: AC50) was 39.8 µM (inconclusive).
In the case of O=C(OCC12CC3CC(CC(C3)C1)C2)c1ccc(NCc2cc(O)ccc2O)cc1, the AC50 [1] is reported as 7.26 µM (active), the AC50 [2] is reported as 66.7 µM (active) and the AC50 [3] is reported as 3.25 µM (active).
For Cc1c(C2(O)CCCCC2)[nH]c2cc(C(F)(F)F)ccc12, the AC50 [4] was 7.81 µM (active).
With CCOCCN1CCC(OC(C)=O)C(C)C1 (stereo unspecified) the AC50 (Cytochrome P450 2D6) was 12.6 µM (inconclusive) and the AC50 (Cytochrome P450 2C19; read-out: AC50) was 3.16 µM (inconclusive).
For Clc1ccc(NN(Cc2ccncc2)c2ccc(Cl)cc2)cc1, the EC50 [5] was > 53 µM (inactive).
With COCCNC(=S)N/N=C/c1ccc(-c2ccc([N+](=O)[O-])cc2)o1 the EC50 [5] was 5.95 µM (active).
For C/C(=N\c1ccccc1C)C1=C(O)SCC1=O, the CC50 [12] was 32.3 µM (active).
For CCOc1cc(/C=N/NC(=O)CCn2nc(C)cc2C)ccc1O, the IC50 [7] was 61.5 µM (active).
With O/N=C/c1cc(Cl)ccc1OCc1ccccc1Cl the AC50 [4] was 4.45 µM (active).
In the case of CC(C)=CCc1c(O)c(CC=C(C)C)c2occ(-c3ccc(O)cc3)c(=O)c2c1O, the AC50 [4] is reported as 2.62 µM (active), the EC50 (Streptococcus) is reported as 3.28 µM (active) and the EC50 [6] is reported as 2.66 µM (active).
With COc1ccccc1N1CCN(CCCCN2C(=O)c3ccccc3C2=O)CC1 [NAN-190] the AC50 (Cytochrome P450 2D6) was 12.6 µM (inconclusive) and 10 µM (inconclusive) and the AC50 (Cytochrome P450 3A4) was 31.6 µM (inconclusive) and 1.58 µM (inconclusive).

Source: ChEMBL document CHEMBL1201862, “PubChem BioAssay data set” (2004)
